Measurements published in patent US11000601B2, “Conjugated biological molecules, pharmaceutical compositions and methods” (OBI Pharma, Inc., priority 2016, dated 2021).
Several values for one entry are separate records, joined by “and”; a condition that tells them apart may be missing. Equal values may be shown once. Marks after values point to notes of the source that are not given here. Square brackets hold non-standard residues; d marks the D form. Peptide text beside a SMILES is read from it. * marks the point of attachment. Dolaproine = CO[C@@H]([C@@H]1CCCN1)[C@@H](C)C(=O)O; Dil = CC[C@H](C)[C@H](NC)[C@@H](CC(=O)O)OC; X1 = C[C@@H](N*)[C@@H](O)c1ccccc1; NMeV = CN[C@H](C(=O)O)C(C)C

Legend:
[1] = tested on: NCI-H526 (ATCC CRL-5811) variant small cell lung cancer cells; assay: Xenograft tumor model of human small cell lung cancer NCI-H526 in female nu/nu mice: tumor volume, T/C, TGI; format: in vivo; settings: for Tumor Volume (mm^3), individual animal: animals No. 1-8; for Tumor Volume (mm^3), individual animal / Tumor Volume (mm^3), Mean: once weekly x 4 (10 mg/kg IV; MMAE 0.191 mg/kg IP); for Tumor Volume (mm^3), Mean: group mean; for % T/C: treatment/control x 100%, <=42% considered significant; for % TGI: vs vehicle control
Description: In a xenograft tumor model of human small cell lung cancer, viable NCI-H526 stage E carcinoma; variant small cell lung cancer cells (ATCC CRL-5811), were subcutaneously (SC) implanted (1×10^6 cells with matrigel (1:0.8) in 0.2 mL/mouse) into the right flank of female nu/nu mice. Tumor implanted mice were divided into five treatment groups, each group containing eight animals, and test agent administrations were initiated one day after cell implantation (denoted as Day 1).
The NCI-H526 tumor cell line was purchased from American Type Culture Collection (ATCC CRL-5811, variant small cell lung carcinoma) and cultured in Eurofins Panlabs Taiwan, Ltd. The cells were cultured in RPMI-1640 medium containing 10% fetal bovine serum (FBS) at 37° C. in 5% CO2 incubator and implanted subcutaneously in the right flank of each mouse.
Female nu/nu nude, aged 6-7 weeks, were obtained from BioLasco Taiwan (under Charles River Laboratories Licensee) and used. The animals were housed in individually ventilated cages (IVC, 36 Mini Isolator system). The allocation for 5 animals was 27×20×14 in cm. All animals were maintained in a hygienic environment under controlled temperature (20-24° C.) and humidity (30-70%) with 12-hour light/dark cycle. Free access to standard lab diet [MFG (Oriental Yeast Co., Ltd., Japan)] and autoclaved tap water were granted. All aspects of this work including housing, experimentation, and animal disposal were performed in general accordance with the “Guide for the Care and Use of Laboratory Animals: Eighth Edition” (National Academies Press, Washington, D.C., 2011) in our AAALAC-accredited laboratory animal facility. In addition, the animal care and use protocol was reviewed and approved by the IACUC at Eurofins Panlabs Taiwan, Ltd.
The tumor volumes, body weights, mortality, and signs of overt toxicity were monitored and recorded twice weekly for 45 days. Tumor growth inhibition was calculated as T/C (treatment/control)×100%. A T/C value≤42% compared to that of the vehicle control group was considered significant anti-tumor activity. Two-way ANOVA followed by Bonferroni test was used to ascertain the statistically significant significance of groups compared to respective vehicle control (*p<0.05).

[2] = Body weight in male BALB/c nude mice bearing HPAC established tumors; settings: QW x 4, MMAE 0.191 mg/kg IP; for Body Weight (g), Mean: group mean; for Body Weight (g), Mean / Body Weight: ADC (OBI-999) and OBI-888 10 mg/kg IV; for Body Weight: individual animals
Description: Male nu/nu nude, aged 6-8 weeks, were obtained from Shanghai Lingchang and used. The mice were kept in individual ventilation cages at constant temperature and humidity with four animals in each cage (temperature: 20-26° C. and humidity: 40-70%). The cages were made of polycarbonate and the size was 300 mm×200 mm×180 mm. The bedding material was corn cob, which was changed twice per week. Animals had free access to irradiation sterilized dry granule food and drinking water during the entire study period. The identification labels for each cage contained the following information: number of animals, sex, strain, date received, treatment, study number, group number and the starting date of the treatment.

CC[C@H](C)[C@@H]([C@@H](CC(=O)N1CCC[C@H]1[C@H](OC)[C@@H](C)C(=O)N[C@H](C)[C@@H](O)c1ccccc1)OC)N(C)C(=O)[C@@H](NC(=O)[C@@H](NC)C(C)C)C(C)C [MMAE, monomethyl auristatin E] (H-[NMeV]V[Dil][Dolaproine]-X1)
maximum percent TGI ([1]; 0.191 mg/kg IP weekly, Day 18): 55%
anti-tumor activity (in words) ([1]; 0.191 mg/kg IP weekly, over the course of the study): moderate anti-tumor activity
Tumor Volume (mm^3), individual animal ([1]; Day 1): 75 mm^3 and 108 mm^3 and 81 mm^3 and 83 mm^3 and 99 mm^3 and 60 mm^3 and 68 mm^3 and 91 mm^3
Tumor Volume (mm^3), Mean ([1]; Day 1): 83 mm^3
% T/C ([1]; Day 1): 108%
Tumor Volume (mm^3), individual animal ([1]; Day 4): 80 mm^3 (2×) and 127 mm^3 and 101 mm^3 and 88 mm^3 and 115 mm^3 and 85 mm^3 and 108 mm^3
Tumor Volume (mm^3), Mean ([1]; Day 4): 98 mm^3
% T/C ([1]; Day 4): 120%
% TGI ([1]; Day 4): −20%
Tumor Volume (mm^3), individual animal ([1]; Day 8): 94 mm^3 (2×) and 74 mm^3 (2×) and 83 mm^3 and 70 mm^3 and 82 mm^3 and 121 mm^3
Tumor Volume (mm^3), Mean ([1]; Day 8): 87 mm^3
% T/C ([1]; Day 8): 97%
% TGI ([1]; Day 8): 3%
Tumor Volume (mm^3), individual animal ([1]; Day 11): 74 mm^3 and 86 mm^3 and 89 mm^3 and 104 mm^3 and 121 mm^3 and 67 mm^3 and 77 mm^3 and 79 mm^3
Tumor Volume (mm^3), Mean ([1]; Day 11): 87 mm^3
% T/C ([1]; Day 11): 68%
% TGI ([1]; Day 11): 32%
Tumor Volume (mm^3), individual animal ([1]; Day 15): 82 mm^3 and 133 mm^3 and 137 mm^3 and 101 mm^3 and 144 mm^3 and 89 mm^3 and 172 mm^3 and 123 mm^3
Tumor Volume (mm^3), Mean ([1]; Day 15): 123 mm^3
% T/C ([1]; Day 15): 71%
% TGI ([1]; Day 15): 29%
Tumor Volume (mm^3), individual animal ([1]; Day 18): 80 mm^3 and 199 mm^3 and 246 mm^3 and 169 mm^3 and 187 mm^3 and 101 mm^3 and 281 mm^3 and 202 mm^3
Tumor Volume (mm^3), Mean ([1]; Day 18): 183 mm^3
% T/C ([1]; Day 18): 45%
% TGI ([1]; Day 18): 55%
Tumor Volume (mm^3), individual animal ([1]; Day 22): 74 mm^3 and 618 mm^3 and 530 mm^3 and 337 mm^3 and 317 mm^3 and 152 mm^3 and 621 mm^3 and 401 mm^3
Tumor Volume (mm^3), Mean ([1]; Day 22): 381 mm^3
% T/C ([1]; Day 22): 52%
% TGI ([1]; Day 22): 48%
Tumor Volume (mm^3), individual animal ([1]; Day 25): 70 mm^3 and 1163 mm^3 and 1095 mm^3 and 483 mm^3 and 525 mm^3 and 249 mm^3 and 1078 mm^3 and 535 mm^3
Tumor Volume (mm^3), Mean ([1]; Day 25): 650* mm^3
% T/C ([1]; Day 25): 58%
% TGI ([1]; Day 25): 42%
Tumor Volume (mm^3), individual animal ([1]; Day 29): 90 mm^3 and 1756 mm^3 and 1410 mm^3 and 853 mm^3 and 522 mm^3 and 431 mm^3 and 1313 mm^3 and 845 mm^3
Tumor Volume (mm^3), Mean ([1]; Day 29): 903* mm^3
% T/C ([1]; Day 29): 48%
% TGI ([1]; Day 29): 52%
Tumor Volume (mm^3), individual animal ([1]; Day 31): 173 mm^3 and 1901 mm^3 and 1682 mm^3 and 1172 mm^3 and 657 mm^3 and 550 mm^3 and 1595 mm^3 and 1044 mm^3
Tumor Volume (mm^3), Mean ([1]; Day 31): 1097* mm^3
% T/C ([1]; Day 31): 48%
% TGI ([1]; Day 31): 52%
Tumor Volume (mm^3), individual animal ([1]; Day 36): 126 mm^3 and 3047 mm^3 and 2480 mm^3 and 2090 mm^3 and 759 mm^3 and 1032 mm^3 and 2538 mm^3 and 1318 mm^3
Tumor Volume (mm^3), Mean ([1]; Day 36): 1674 mm^3
Tumor Volume (mm^3), individual animal ([1]; Day 39): 56 mm^3 and 4380 mm^3 and 2713 mm^3 and 2836 mm^3 and 841 mm^3 and 1304 mm^3 and 3040 mm^3 and 1339 mm^3
Tumor Volume (mm^3), Mean ([1]; Day 39): 2064 mm^3
Body Weight (g), Mean ([2]; Day 0): 24.2 g
Body Weight ([2]; Day 0): 25.4 g and 24.2 g and 23.3 g and 24.0 g and 22.7 g
Body Weight (g), Mean ([2]; Day 3): 22.1 g
Body Weight ([2]; Day 3): 21.8 g and 22.4 g and 21.5 g and 21.6 g (2×) and 24.0 g and 20.7 g and 23.1 g
Body Weight (g), Mean ([2]; Day 4): 21.9 g
Body Weight ([2]; Day 4): 21.0 g and 21.3 g and 20.5 g and 22.0 g and 19.6 g and 22.1 g
Body Weight (g), Mean ([2]; Day 7): 23.6 g
Body Weight ([2]; Day 7): 18.8 g and 25.1 g and 27.0 g and 21.7 g and 23.8 g
Body Weight ([2]; Day 9): 22.2 g
Body Weight ([2]; Day 10): 26.0 g
Body Weight ([2]; Day 14): 24.4 g and 26.0 g
Body Weight ([2]; Day 17): 23.9 g and 26.0 g and 23.6 g
Body Weight ([2]; Day 21): 23.8 g
Body Weight (g), Mean ([2]; Day 28): 25.4 g
Body Weight ([2]; Day 31): 25.0 g and 25.4 g
Body Weight (g), Mean ([2]; Day 35): 26.0 g
Body Weight ([2]; Day 35): 27.2 g
Body Weight ([2]; Day 37): 26.7 g and 24.0 g
Animal status (Died / Euthanized) ([2]; individual animal, OBI-888 10 mg/kg IV): Died and Euthanized
